Counter-ions that a name gives are not always drawn.
Key:
Format in all cases: biochemical
bovine plasma plasmin = biological target: T1, bovine plasma plasmin (Bos taurus, UniProt P06868); assay: Chromogenic assay, inhibition of plasmin; conditions: in vitro; substrate Chromozym PL; pH 8.0; 30 minutes at 30° C.
T1 construct: from tissue; host or cells: bovine plasma
Method: (§1) The inhibition of thrombin, trypsin, plasmin or factor Xa is measured in 96 well plate chromogenic assays. The percentage inhibition and IC50 are calculated from triplicate samples of an 8 concentration dose-response curve. From the substrate Km and IC50, the Ki for each inhibitor is calculated. All assays are carried out in a total incubation of 200 μl of 50 mM HEPES and 150 mM NaCl at pH 8.0, and all compound dilutions are preincubated with enzyme at room temperature for 15 minutes prior to addition of substrate. After 30 minutes incubation at 30° C., the O.D. is measured at […] in a 96 well plate reader. Thrombin activity is measured using bovine thrombin and S2238 (H-D-Phe-Pip-Arg-pNA), bovine pancreatic trypsin is assayed with S2222 (Benz-Isoleu-Glu-Gly-Arg-pNA), bovine plasma plasmin is assayed with Chromozym PL (Tosyl-Gly-Pro-Lys-pNA)and bovine factor Xa is assayed in 50 mM Tris,150mM NaCl,pH 7.5 buffer with S2222.

bovine thrombin = bovine thrombin (Bos taurus, UniProt P00735); assay: Chromogenic assay, inhibition of thrombin; conditions: in vitro; substrate S2238; pH 8.0; 30 minutes at 30° C.
Method: as §1

[1] = biological target: T2, bovine pancreatic trypsin (Bos taurus, UniProt P00760); assay: Chromogenic assay, inhibition of trypsin; conditions: in vitro; substrate S2222; pH 8.0; 30 minutes at 30° C.
T2 construct: from tissue; host or cells: bovine pancreas
T2 sequence (P00760 24-246): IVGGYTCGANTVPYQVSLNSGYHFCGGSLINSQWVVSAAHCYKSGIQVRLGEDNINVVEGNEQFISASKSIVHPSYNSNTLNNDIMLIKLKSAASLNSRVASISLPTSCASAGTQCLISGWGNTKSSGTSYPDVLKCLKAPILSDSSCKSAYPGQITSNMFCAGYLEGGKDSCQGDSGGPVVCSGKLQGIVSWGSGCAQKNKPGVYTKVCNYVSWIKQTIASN
Method: as §1

T1 sequence (P06868 584-812 limits assumed): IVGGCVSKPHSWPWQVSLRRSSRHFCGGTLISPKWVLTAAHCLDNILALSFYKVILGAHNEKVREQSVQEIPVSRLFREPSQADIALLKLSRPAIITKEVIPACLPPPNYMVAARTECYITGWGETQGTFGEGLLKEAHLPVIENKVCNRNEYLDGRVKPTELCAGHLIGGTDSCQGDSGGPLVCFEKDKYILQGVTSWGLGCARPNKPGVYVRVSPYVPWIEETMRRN
T1 sequence (P06868 105-583 partner limits assumed): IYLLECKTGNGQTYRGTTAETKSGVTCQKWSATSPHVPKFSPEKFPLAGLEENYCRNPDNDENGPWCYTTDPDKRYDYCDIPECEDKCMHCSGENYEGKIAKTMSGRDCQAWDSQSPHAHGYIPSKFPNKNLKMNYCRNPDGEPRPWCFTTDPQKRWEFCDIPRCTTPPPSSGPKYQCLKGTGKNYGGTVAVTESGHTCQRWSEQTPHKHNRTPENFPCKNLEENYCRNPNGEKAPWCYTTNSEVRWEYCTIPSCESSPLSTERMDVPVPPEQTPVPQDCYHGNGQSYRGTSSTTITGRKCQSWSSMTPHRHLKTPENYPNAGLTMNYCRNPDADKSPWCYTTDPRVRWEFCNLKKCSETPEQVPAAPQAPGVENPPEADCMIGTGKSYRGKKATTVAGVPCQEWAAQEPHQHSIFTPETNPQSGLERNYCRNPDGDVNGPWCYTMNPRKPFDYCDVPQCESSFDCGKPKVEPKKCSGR

Ki (bovine plasma plasmin) [nM] | Ki (bovine thrombin) [nM] | Ki [1] [nM] | Structure (SMILES)
1800 | 6.4 | 40 | CC1=CCN(C(=O)[C@H](Cc2cccc(C(=N)N)c2)NS(=O)(=O)c2ccc3c(c2)CCN(C(C)C)CC3)[C@@H](C(=O)O)C1 [Example 8, 4-Methyl-1-{N-[3-(2-propyl]-2,3,4,5-tetrahydro-1H-3-benzazepine-7-sulphonyl-3-amidino-(S)-phenylalanyl}-1,2,3,6-tetrahydropyridine-2(R)-carboxylic acid dihydrochloride]
12000 | 4 | 49 | C[C@@H]1CCN(C(=O)C(Cc2cccc(C(=N)N)c2)NS(=O)(=O)c2ccc3c(c2)CN(C)CC3)[C@@H](C(=O)O)C1 (stereo partly drawn) [Example 13, 4(R)-Methyl-1-[N-(2-methyl-1,2,3,4-tetrahydroisoquinoline-7-sulphonyl)-3-amidino-(R,S)-phenylalanyl]piperidine-2(R)-carboxylic acid dihydrochloride]
6100 | 3.9 | 57 | CC1=CCN(C(=O)[C@H](Cc2cccc(C(=N)N)c2)NS(=O)(=O)c2ccc3c(c2)CCN(C)C3)[C@@H](C(=O)O)C1 [Example 2, 4-Methyl-1-[N-(2-methyl-1,2,3,4-tetrahydroisoquinoline-6-sulphonyl)-3-amidino-(S)-phenylalanyl]-1,2,3,6-tetrahydropyridine-2(R)-carboxylic acid dihydrochloride]
6000 | 2.2 | 54 | CC1=CCN(C(=O)[C@H](Cc2cccc(C(=N)N)c2)NS(=O)(=O)c2ccc3c(c2)C(CC(=O)N(C)C)N(C)CC3)[C@@H](C(=O)O)C1 (stereo partly drawn) [Example 5, 1-{N-[1(R,S)-(N,N-Dimethylcarbamoylmethyl)-2-methyl-1,2,3,4-tetrahydroisoquinoline-7-sulphonyl]-3-amidino-(S)-phenylalanyl}-4-methyl-1 2,3,6-tetrahydropyridine-2(R-carboxylic acid dihydrochloride]
14000 | 78 | 320 | CC1=CCN(C(=O)[C@H](Cc2cccc(C(=N)N)c2)NS(=O)(=O)c2ccc3c(c2)CNCC3)C(C(=O)O)C1 (stereo partly drawn) [Example 15, 4-Methyl-1-[N-(1,2,3,4-tetrahydroisoquinoline-7-sulphonyl)-3-amidino-(S)-phenylalanvl]-1,2,3,6-tetrahydropyridine-2(R,S)-carboxylic acid dihydrochloride]
180 | 1 | 48 | CC1=CCN(C(=O)[C@H](Cc2cccc(C(=N)N)c2)NS(=O)(=O)c2ccc3c(c2)CN(Cc2ccccc2)CC3)[C@@H](C(=O)O)C1 [Example 10, 1-[N-(2-Benzyl-1,2,3,4-tetrahydroisoquinoline-7-sulphonyl)-3-amidino-(S)-phenylalanyl]-4-methyl-1,2,3,6-tetrahydropyridine-2(R)-carboxylic acid dihydrochloride]

Source: patent US5861393A, “Antithrombotic amidinophenylalanine and amidinopyridylalanine derivatives” (Pfizer Inc., priority 1993, dated 1999)
